Structures can show the parent of a compound that is named as a salt.
Tests used:
[1] = tested on: NMDA-induced neuropathy, animal models of epilepsy or brain ischemia; conditions: reported in the literature; cited from earlier work
[2] = tested on: AMPA receptor; assay: [3H]-AMPA binding inhibitory activity; conditions: rat cerebral membrane
Description: Determination of [^3 H]-AMPA Binding Activity
A mixture (0.5 ml) of about 45 nM [^3 H]-AMPA (2-amino-3-(3-hydroxy-5-methyl-4-isoxazole)propionic acid), about […] of rat cerebral membrane specimen and the test compound was allowed to react on ice-water for 45 minutes. The amount of [^3 H]-AMPA bound to quisqualic acid receptors was determined by the filtration method. Of the total amount of binding, the portion substituted for by 10 μM quisqualic acid was regarded as specific binding. The test compound was evaluated by determining the percentage inhibition of the specific binding.

[3] = tested on: DBA/2 mice; assay: Audiogenic convulsion inhibitory activity in DBA/2 mice; format: in vivo; conditions: Mus musculus, ip, 0.25 h, intraperitoneal, given 15 minutes before sound stimulation, read-out: dose at which audiogenic convulsions were inhibited
Description: Determination of Audiogenic Convulsion Inhibitory Activity in DBA/2 Mice
Ten male mice, 21-28 days old, were placed in a soundproof box and loaded with a sound stimulus of 12 KHz and 120 dB for 1 minute or until the mice developed tonic convulsions.
The test compound was suspended in 0.5% methylcellulose solution or dissolved in physiological saline and administered intraperitoneally 45 or 15 minutes before sound stimulation.
The effect of the test compound was evaluated according to the onset of convulsion and the minimum effective dose (MED) was determined.

[4] = tested on: nerve cells in the hippocampus CA1; assay: Neuron-protective action in the hippocampus, gerbil model of ischemia; format: in vivo; conditions: administered 60, 70 and 85 minutes after 5-minute ischemia (regimen 2, 30 mg/kg/dose i.p.)
Description: Neuron-Protective Action in the Hippocampus
The protective action on nerve cell necrosis due to cerebral ischemia was tested using a gerbil model of ischemia constructed by occlusion of the bilateral common carotid arteries.
The bilateral common carotid arteries of the gerbil were occluded for 5 minutes under halothane anesthesia with the animal kept warm to avoid hypothermia and, then, the animal was allowed to recover from anesthesia. After 4 days, the brain was isolated and sections were prepared for histological examination of the degree of neuronal damage in the hippocampus CA1.
The test compound, either suspended in 0.5% methylcellulose solution or dissolved in physiological saline, was administered intraperitoneally. Two dosage regimens were employed. In regimen 1, 30 mg/kg/dose was administered 45 and 15 minutes before ischemia and 5 minutes and 1, 2, 3, 6 and 24 hours after obtaining re-patency. In regimen 2, 30 mg/kg/dose was administered 60, 70 and 85 minutes after obtaining re-patency.
Histopathological examination was performed using a light microscope. The degree of nerve cell impairment in the hippocampus CA1 area was rated on a 4-point scale of no lesion (score 0), slight necrosis (score 1), moderate necrosis (score 2) and complete necrosis (score 3).

[5] = tested on: animal model of brain ischemia; conditions: reported in the literature; cited from earlier work

Structure (SMILES): NC(CCCP(=O)(O)O)C(=O)O (stereo not shown) [2-amino-5-phosphonovalerianic acid]
- efficacy in NMDA-induced neuropathy and in animal models of epilepsy or brain ischemia [1]: effective

Structure (SMILES): NC(CCCCCP(=O)(O)O)C(=O)O (stereo not shown) [2-amino-7-phosphonoheptanoic acid]
- efficacy in NMDA-induced neuropathy and in animal models of epilepsy or brain ischemia [1]: effective

Structure (SMILES): O=c1[nH]c2cc([N+](=O)[O-])c(-n3ccnc3)cc2n(O)c1=O [Example 8, 1-hydroxy-7-imidazolyl-6-nitroquinoxaline-2,3-(1H,4H)-dione]
- AMPA receptor binding inhibitory activity ([2]; at 1 μM): 96%
- Ki [2]: 21 nM

Structure (SMILES): O=c1[nH]c2cc(-n3ccnc3)c(C(F)(F)F)cc2[nH]c1=O [Example 9, 6-(1-imidazolyl)-7-trifluoromethylquinoxaline-2,3-(1H,4H)-dione hydrochloride hydrate]
- minimal effective dose [3]: 3 mg/kg

Structure (SMILES): O=c1[nH]c2cc(-n3ccnc3)c([N+](=O)[O-])cc2[nH]c1=O [Example 15, 6-imidazolyl-7-nitroquinoxaline-2,3-(1H,4H)-dione]
- minimal effective dose [3]: 3 mg/kg
- lesion score (hippocampus CA1, scale 0-3) [4]: 1.2
- neuron protecting activity [4]: 60%

Structure (SMILES): NC1CCN(O)C1=O (stereo not shown) [HA-966]
- efficacy in an animal model of brain ischemia [5]: effective

Structure (SMILES): NS(=O)(=O)c1cccc2c1c([N+](=O)[O-])cc1[nH]c(=O)c(=O)[nH]c12 [NBQX]
- efficacy in an animal model of brain ischemia [5]: effective

Reference: patent publication US5283244A, “Fused pyrazine derivatives” (Yamanouchi Pharmaceutical Co., Ltd., priority 1990, dated 1994)
